Measured values taken from patent US20240158446A1, “CYCLIC COMPOUND HAVING SELECTIVE INHIBITORY ACTION ON KRAS OVER HRAS AND NRAS” (CHUGAI SEIYAKU KABUSHIKI KAISHA, priority 2021, published 2024).
Where two headings read alike, the source gives them in different places. *1 amine or outer side, *2 acyl side, *3 side chain or, on linkers, in order; H or OH if unused. Where a SMILES comes first, the peptide text is derived from it. Bridges are numbered along the chain shown (N, C = ends). [ ]: non-standard residue; d: D form. The star is where a group is joined. hPhe(3-Cl-4-CF3) = N[C@@H](CCc1ccc(C(F)(F)F)c(Cl)c1)C(=O)O; X5 = C=CCN([C@@H](Cc1ccc(C(F)(F)F)cc1)C(=O)[*:2])[*:1]; NMeGly(cPent) = CN[C@H](C(=O)O)C1CCCC1; NMeD = CN[C@@H](CC(=O)O)C(=O)O; NMeL = CN[C@@H](CC(C)C)C(=O)O; Morpholide = C1CN(*)CCO1; Ac5c = NC1(C(=O)O)CCCC1; Sar = CNCC(=O)O

Columns and labels:
[1] = system: human lung cancer strain NCI-H441;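 further: cell proliferation inhibition after four days measured by CellTiter-Glo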
[2] = molecular target: GDP-bound HRAS wild-type protein (Homo sapiens, UniProt P01112); assay: Binding to HRAS by surface plasmon resonance (SPR), Single Cycle Kinetics; conditions: for HRAS/KRAS (ratio of KD value for HRAS to KD value for KRAS): GDP-bound HRAS wild-type protein vs GDP-bound KRAS wild-type protein; for HRAS/KRAS (ratio of KD value with respect to GDP-bound HRAS wild-type protein to KD value with respect to KRAS): SPR KD ratio HRAS/KRAS, class symbols
Sequence of GDP-bound HRAS wild-type protein (P01112 whole entry): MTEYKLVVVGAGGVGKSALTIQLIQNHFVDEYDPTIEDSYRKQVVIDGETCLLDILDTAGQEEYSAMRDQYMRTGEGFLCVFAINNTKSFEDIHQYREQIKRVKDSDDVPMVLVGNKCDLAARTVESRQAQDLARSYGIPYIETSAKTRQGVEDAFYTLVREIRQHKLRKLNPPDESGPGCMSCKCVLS

[3] = molecular target: GDP-bound KRAS wild-type protein (Homo sapiens, UniProt P01116); assay: Binding to KRAS by surface plasmon resonance (SPR), Single Cycle Kinetics; conditions: GDP-bound KRAS wild-type protein, read-out: KRAS KD
Sequence of GDP-bound KRAS wild-type protein (P01116 whole entry): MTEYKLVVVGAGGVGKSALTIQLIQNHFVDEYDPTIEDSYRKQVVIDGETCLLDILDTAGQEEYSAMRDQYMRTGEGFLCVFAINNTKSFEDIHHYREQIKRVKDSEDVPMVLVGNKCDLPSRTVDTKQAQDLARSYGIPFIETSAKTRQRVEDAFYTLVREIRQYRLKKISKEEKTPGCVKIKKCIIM

[4] = molecular target: GDP-bound NRAS wild-type protein (Homo sapiens, UniProt P01111); assay: Binding to NRAS by surface plasmon resonance (SPR), Single Cycle Kinetics; conditions: for NRAS/KRAS (ratio of KD value for NRAS to KD value for KRAS): GDP-bound NRAS wild-type protein vs GDP-bound KRAS wild-type protein; for NRAS/KRAS (ratio of KD value with respect to GDP-bound NRAS wild-type protein to KD value with respect to KRAS): SPR KD ratio NRAS/KRAS, class symbols
Sequence of GDP-bound NRAS wild-type protein (P01111 whole entry): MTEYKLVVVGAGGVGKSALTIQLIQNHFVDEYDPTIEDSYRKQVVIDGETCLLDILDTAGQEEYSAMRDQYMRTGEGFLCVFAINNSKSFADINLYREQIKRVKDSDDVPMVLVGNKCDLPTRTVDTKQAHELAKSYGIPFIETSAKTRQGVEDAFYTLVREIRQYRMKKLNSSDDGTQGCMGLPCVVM

[5] = SPR, Single Cycle Kinetics, 1:1 binding model
[6] = SPR Single Cycle Kinetics, 1:1 binding model

Row | SMILES | IC50 [1] | HRAS/KRAS (ratio of KD value for HRAS to KD value for KRAS) ([2]; SPR) | Kd ([3]; SPR, Single Cycle Kinetics) | NRAS/KRAS (ratio of KD value for NRAS to KD value for KRAS) ([4]; SPR) | Kd [3, 6] | also measured
1 | CCO[C@@H]1C[C@H]2C(=O)NC3(CCC3)C(=O)N(C)[C@@H](C3CCCC3)C(=O)N(C)[C@H](C(=O)N3CCOCC3)CC(=O)N(C)[C@@H](CC)C(=O)N[C@@H]([C@@H](C)CC)C(=O)N(C)CC(=O)N(C)[C@H]3CCCCCN(C3=O)[C@@H](Cc3ccc(F)cc3)C(=O)N(C)CC(=O)N[C@@H](CCc3cc(F)c(C(F)(F)F)c(F)c3)C(=O)N2C1 [PP1176] | 50 nM | B (a compound having 3 or more and less than 10 is denoted as B) | 0.13 nM | B (a compound having 3 or more and less than 10 is denoted as B) | – | –
2 | CCO[C@@H]1C[C@H]2C(=O)NC3(CCC3)C(=O)N(C)[C@@H](C3CCCC3)C(=O)N(C)[C@H](C(=O)N(C)C)CC(=O)N(C)[C@@H](CC3CCC3)C(=O)N[C@@H]([C@@H](C)CC)C(=O)N(C)CC(=O)N(C)[C@H]3C/C=C\CCN(C3=O)[C@@H](CC3CCCCC3)C(=O)N(C)CC(=O)N[C@@H](CCc3cc(F)c(C(F)(F)F)c(F)c3)C(=O)N2C1 [PP1469] | 22.2 nM | – | – | – | – | HRAS/KRAS (ratio of KD value for HRAS to KD value for KRAS) ([2]; SPR, KD ratio class): A (a compound having 10 or more and less than 20 is denoted as A); Kd [3, 5]: 0.18 nM; NRAS/KRAS (ratio of KD value for NRAS to KD value for KRAS) ([4]; SPR, KD ratio class): A (a compound having 10 or more and less than 20 is denoted as A)
3 | CCCOC[C@H]1C(=O)N[C@@H]([C@@H](C)CC)C(=O)N(C)CC(=O)N(C)[C@H]2C/C=C\CCN(C2=O)[C@@H](CC2CCC(F)(F)CC2)C(=O)N(C)CC(=O)N[C@@H](CCc2ccc(C(F)(F)F)c(OC)c2)C(=O)N2C[C@H](OCC)C[C@H]2C(=O)NC2(CC(C)(C)C2)C(=O)N(C)[C@@H](C(CC)CC)C(=O)N(C)[C@H](C(=O)N(C)C)CC(=O)N1C [PP2464] | 66 nM | A (a compound having 10 or more and less than 20 is denoted as A) | 0.98 nM | A (a compound having 10 or more and less than 20 is denoted as A) | – | –
4 | CCC[C@H]1C(=O)N[C@@H]([C@@H](C)CC)C(=O)N2C[C@@H](OC)C[C@H]2C(=O)N(C)[C@H]2C/C=C\CCN(C2=O)[C@@H](Cc2ccc(C)cc2)C(=O)N(C)CC(=O)N[C@@H](CCc2ccc(C(F)(F)F)c(OC)c2)C(=O)N2C[C@H](OCC)C[C@H]2C(=O)NC2(CC(C)(C)C2)C(=O)N(C)[C@@H](C2CCCC2)C(=O)N(C)[C@H](C(=O)N(C)C)CC(=O)N1C [PP2557] | 14.2 nM | – | – | – | 0.3 nM | HRAS/KRAS (ratio of KD value with respect to GDP-bound HRAS wild-type protein to KD value with respect to KRAS) [2]: B (a compound having 3 or more and less than 10 is denoted as B); NRAS/KRAS (ratio of KD value with respect to GDP-bound NRAS wild-type protein to KD value with respect to KRAS) [4]: A (a compound having 10 or more and less than 20 is denoted as A)
5 | CCO[C@@H]1C[C@H]2C(=O)NC3(CC(C)(C)C3)C(=O)N(C)[C@@H](C3CCCCC3)C(=O)N(C)[C@H](C(=O)N(C)C)CC(=O)N(C)[C@@H](COC)C(=O)N[C@@H]([C@@H](C)CC)C(=O)N(C3CC3)CC(=O)N(C)[C@H]3C/C=C\CCN(C3=O)[C@@H](Cc3ccc(C(F)(F)F)cc3)C(=O)N(C)CC(=O)N[C@@H](CCc3cc(F)c(C(F)(F)F)c(F)c3)C(=O)N2C1 [PP2657] | 29.2 nM | – | – | – | 0.44 nM | HRAS/KRAS (ratio of KD value with respect to GDP-bound HRAS wild-type protein to KD value with respect to KRAS) [2]: A (a compound having 10 or more and less than 20 is denoted as A); NRAS/KRAS (ratio of KD value with respect to GDP-bound NRAS wild-type protein to KD value with respect to KRAS) [4]: A (a compound having 10 or more and less than 20 is denoted as A)
6 | CCO[C@@H]1C[C@H]2C(=O)NC3(CC(C)(C)C3)C(=O)N(C)[C@@H](C3CCCC3)C(=O)N(C)[C@H](C(=O)N(CC)CC)CC(=O)N(C)[C@@H](COC)C(=O)N[C@@H]([C@@H](C)CC)C(=O)N(C)CC(=O)N(C)[C@H]3C/C=C\CCN(C3=O)[C@@H](Cc3ccc(C)cc3)C(=O)N(C)CC(=O)N[C@@H](CCc3cc(F)c(C(F)(F)F)c(F)c3)C(=O)N2C1 [PP2403] | 7.2 nM | A (a compound having 10 or more and less than 20 is denoted as A) | 0.22 nM | A (a compound having 10 or more and less than 20 is denoted as A) | – | –
7 | C=CCN1C(=O)CN(C)C(=O)CN(C)C(=O)[C@H]([C@@H](C)CC)NC(=O)[C@H](CC(C)C)N(C)C(=O)C[C@@H](C(=O)N2CCOCC2)N(C)C(=O)[C@H](C2CCCC2)N(C)C(=O)C2(CCCC2)NC(=O)[C@@H]2CCCN2C(=O)[C@H](CCc2ccc(C(F)(F)F)c(Cl)c2)NC(=O)CN(C)C(=O)[C@@H]1Cc1ccc(C(F)(F)F)cc1 [PP0128] ([NMeL]I[Sar][Sar][X5][Sar][hPhe(3-Cl-4-CF3)]P[Ac5c][NMeGly(cPent)][NMeD]-Morpholide; lactam N-11) | 10.4 nM | C (A compound having a KD ratio of 0.1 or more and less than 3 is denoted as C) | – | C (A compound having a KD ratio of 0.1 or more and less than 3 is denoted as C) | 0.25 nM | –
8 | CC[C@H](C)[C@@H]1NC(=O)[C@H](CC)N(C)C(=O)C[C@@H](C(=O)N(C)C)N(C)C(=O)[C@H](C2CCCC2)N(C)C(=O)C2(CCCC2)NC(=O)[C@@H]2CCCN2C(=O)[C@H](CCc2ccc(C(F)(F)F)c(Cl)c2)NC(=O)CN(C)C(=O)[C@H](Cc2ccc(C(F)(F)F)cc2)N2C[C@H](C)CC[C@@H](C2=O)N(C)C(=O)CN(C)C1=O [PP1336] | 10.8 nM | – | – | – | – | HRAS/KRAS (ratio of KD value for HRAS to KD value for KRAS) ([2]; SPR, KD ratio class): B (a compound having 3 or more and less than 10 is denoted as B); Kd [3, 5]: 0.074 nM; NRAS/KRAS (ratio of KD value for NRAS to KD value for KRAS) ([4]; SPR, KD ratio class): B (a compound having 3 or more and less than 10 is denoted as B)
9 | CCCO[C@@H]1C[C@H]2C(=O)NC3(CC(C)(C)C3)C(=O)N(C)[C@@H](C3CCCC3)C(=O)N(C)[C@H](C(=O)N(C)CC)CC(=O)N(C)[C@H]3CCCc4ccc(cc4)C[C@@H](C(=O)N(C)CC(=O)N[C@@H](CCc4ccc(Cl)c(Cl)c4)C(=O)N2C1)N1CC/C=C\C[C@@H](C1=O)N(C)C(=O)CN(C)C(=O)[C@H]([C@@H](C)CC)NC3=O [PP3089] | – | B (a compound having 3 or more and less than 10 is denoted as B) | 0.33 nM | B (a compound having 3 or more and less than 10 is denoted as B) | – | IC50 ([1]; read-out: NCI-H441 cell proliferation inhibitory activity, 50% proliferation inhibitory concentration (IC50 value), NCI-H441, four days, CellTiter-Glo): 27 nM; ratio of the KD value with respect to GDP-bound HRAS wild-type protein to the KD value with respect to KRAS ([2]; SPR, KD(HRAS)/KD(KRAS)): B (a compound having 3 or more and less than 10 is denoted as B); ratio of the KD value with respect to GDP-bound NRAS wild-type protein to the KD value with respect to KRAS ([4]; SPR, KD(NRAS)/KD(KRAS)): B (a compound having 3 or more and less than 10 is denoted as B)
10 | CCC[C@H]1C(=O)N[C@@H]([C@@H](C)CC)C(=O)N(C2CC2)CC(=O)N(C)[C@H]2C/C=C\CCN(C2=O)[C@@H](Cc2ccc(C)cc2)C(=O)N(C)CC(=O)N[C@@H](CCc2ccc(Cl)c(Cl)c2)C(=O)N2C[C@H](OC3CCC3)C[C@H]2C(=O)NC2(CC(C)(C)C2)C(=O)N(C)[C@@H](C2CCCC2)C(=O)N(C)[C@H](C(=O)N(C)C)CC(=O)N1C [PP2616] | 66.4 nM | – | – | – | 0.8 nM | HRAS/KRAS (ratio of KD value with respect to GDP-bound HRAS wild-type protein to KD value with respect to KRAS) [2]: A (a compound having 10 or more and less than 20 is denoted as A); NRAS/KRAS (ratio of KD value with respect to GDP-bound NRAS wild-type protein to KD value with respect to KRAS) [4]: A (a compound having 10 or more and less than 20 is denoted as A)
11 | CCOC[C@H]1C(=O)N[C@@H]([C@@H](C)CC)C(=O)N2CCC[C@H]2C(=O)N(C)[C@H]2C/C=C\CCN(C2=O)[C@@H](Cc2ccc(C(F)(F)F)cc2)C(=O)N(C)CC(=O)N[C@@H](CCc2ccc(C(F)(F)F)c(OC)c2)C(=O)N2C[C@@H](C)C[C@H]2C(=O)N(C)C2(CCC2)C(=O)N(C)[C@@H](C2CCCC2)C(=O)N(C)[C@H](C(=O)N(C)C)CC(=O)N1C [PP2363] | 7.5 nM | B (a compound having 3 or more and less than 10 is denoted as B) | 0.062 nM | A (a compound having 10 or more and less than 20 is denoted as A) | – | –
12 | CCO[C@@H]1C[C@H]2C(=O)NC3(CC(C)(C)C3)C(=O)N(C)[C@@H](C3CCCC3)C(=O)N(C)[C@H](C(=O)N(CC)CC)CC(=O)N(C)[C@@H](COC)C(=O)N[C@@H]([C@@H](C)CC)C(=O)N(C)CC(=O)N(C)[C@H]3C/C=C\CCN(C3=O)[C@@H](Cc3ccc(C)cc3)C(=O)N(C)CC(=O)N[C@@H](CCc3ccc(C(F)(F)F)c(Cl)c3)C(=O)N2C1 [PP2400] | 5.8 nM | A (a compound having 10 or more and less than 20 is denoted as A) | 0.2 nM | A (a compound having 10 or more and less than 20 is denoted as A) | – | –
13 | CCO[C@@H]1C[C@H]2C(=O)NC3(CCC3)C(=O)N(C)[C@@H](C(CC)CC)C(=O)N(C)[C@H](C(=O)N(C)C)CC(=O)N(C)[C@@H](CC3CC3)C(=O)N[C@@H]([C@@H](C)CC)C(=O)N(C)CC(=O)N(C)[C@H]3C/C=C\CCN(C3=O)[C@@H](CC3CCC(F)(F)CC3)C(=O)N(C)CC(=O)N[C@@H](CCc3cc(F)c(C(F)(F)F)c(F)c3)C(=O)N2C1 [PP1429] | 38.7 nM | – | – | – | – | HRAS/KRAS (ratio of KD value for HRAS to KD value for KRAS) ([2]; SPR, KD ratio class): A (a compound having 10 or more and less than 20 is denoted as A); Kd [3, 5]: 0.52 nM; NRAS/KRAS (ratio of KD value for NRAS to KD value for KRAS) ([4]; SPR, KD ratio class): AA (a compound having 20 or more is denoted as AA)
